Patent US10070660B2, “Pet food palatability with antimicrobial properties based on organic acids” (KEMIN INDUSTRIES, INC., priority 2012, dated 2018)

Experiments:
[1] = test system: Salmonella (five Salmonella enterica serovars); test: Cat kibble challenge with dried five strain Salmonella cocktail inoculum; assay type: cell-based; details: for Salmonella counts on challenged cat kibble vs control palatant (in words): cat kibble challenge
Description: (§1) One ml of each Salmonella culture was separately inoculated into a beaker containing tempered (ambient), sterilized MBM which was then incubated at 37° C. for 48 hours. Inoculated MBM was dispensed (approx. 200 g) into sterile 250 ml centrifuge bottles and centrifuged at 5,000 rpm for 10 minutes. The supernatant was decanted and autoclaved for disposal. The pellets were suspended in 10 ml TSB-20% glycerol. Suspensions (approximately 150-160 g) were transferred to sterilized 250 ml polycarbonate straight side wide mouth jars with lids (Nalgene, Thermo Scientific). Jars containing MBM-Salmonella suspensions were immediately frozen at −70° C. for 1 hour. Frozen MBM-Salmonella suspensions were lyophilized using a FreeZone-1 Liter benchtop freeze dry system (Labconco) (approx. 96 hours, −50° C.). Each lyophilized Salmonella culture was pulverized to a fine powder using a sterile mortar and pestle. Twenty g of each of the five lyophilized Salmonella cultures was combined in a sterile wide mouth glass jar to make the dried Salmonella cocktail inoculum. […] Solidified plates were incubated inverted at 37° C. for 16-18 hours. Visible colonies were counted and colony forming units per gram were calculated (CFU/g). […] Kibble and inoculum were mixed together for five minutes by hand in a plastic zip top bag, and allowed to rest for 1 hour prior to sampling. Coated, un-inoculated kibble was also included in the study and tested for Salmonella (direct plating and FDA BAM), total aerobic bacteria, mold and yeast counts, pH, percent moisture, and water activity. For each analysis time point challenged kibble was sampled in triplicate. Kibbles were stored at ambient temperature.
(§2) Challenged kibble samples bags were mixed thoroughly, then 5.00 g (±0.01) was aseptically weighed into a sterile plastic bag and diluted with 45 ml sterile Phosphate Buffer (Butterfield) diluent (BPB) containing (g/l) KH2PO4 34.0, pH adjusted to 7.2 with 1N sodium hydroxide and homogenized using a Stomacher (Seward Stomacher 80) for 1 minute and serially diluted in BPB for plating. The plates are poured with tempered (45° C.) XLD agar. After solidification, plates were inverted and placed in an incubator (37° C.). Colonies were counted and CFU/g was calculated. The counts for each triplicate sample were averaged and expressed as log CFU/g. Those samples of which were below the detection limit of <10 CFU/g were assigned 0 log CFU/g for the purpose of statistical analysis. Analysis of Variance using the LSD separation of means method was performed to analyze the data using StatGraphics software (StatPoint Technologies, Inc. Warrenton, Va.).
All procedures for the Phase 3 kibble challenge were conducted as described for Phase 2.

cats = test: Cat palatability, two-pan method (intake ratio); assay type: in vivo; details: for IR-A: Ration B incumbent; for effect on palatability / taste (in words): summary statement, no trial details
[2] = test system: Salmonella (five Salmonella enterica serovars); test: Dog kibble challenge with dried five strain Salmonella cocktail inoculum; assay type: cell-based; details: dog kibble challenge
Description: as §1, §2
Dry dog palatants were formulated with fumaric acid or SBS to deliver 0.5% acid to the surface of the kibble. The effect of each acid on Salmonella challenged on the surface of dog kibble was examined. Dog kibbles were challenged with dried five strain Salmonella cocktail inoculum.
The effect of each acid on Salmonella challenged on the surface of dog kibble was examined. Dog kibbles were challenged with dried five strain Salmonella cocktail inoculum prep.

[3] = Table 14, single acid 0.5% on cat kibble, day 0
[4] = Table 14, single acid 0.5% on cat kibble, day 1
[5] = Table 14, single acid 0.5% on cat kibble, day 3
[6] = Table 14, single acid 0.5% on cat kibble, day 7
[7] = Table 14, single acid 0.5% on cat kibble, day 14
[8] = Table 14, single acid 0.5% on cat kibble, day 23
[9] = Example 4 cat trials, formula 89-87 or 89-145 vs incumbent dry palatant
[10] = Second set, Formula 89-87, 0.5% total acid on kibble
[11] = Second set, Formula 89-87, 0.25% acid on kibble
[12] = First set, Prototype 89-87 at 2.5%, 0.25% acid on kibble
[13] = First set, Prototype 89-87 at 2.5%, 0.5% total acid on kibble

O=C(O)CC(O)(CC(=O)O)C(=O)O [CA, citric acid]
Salmonella [1, 3]: 2.05 ± 0.05^Ba log CFU/g
Salmonella [1, 4]: 1.54 ± 0.16^BCDab log CFU/g
Salmonella [1, 5]: 1.46 ± 0.09^ABb log CFU/g
Salmonella [1, 6]: 0.77 ± 0.39^ABc log CFU/g
Salmonella [1, 7]: 0.00 ± 0.00^Bd log CFU/g
Salmonella [1, 8]: 0.00 ± 0.00^Bd log CFU/g
Salmonella counts on challenged cat kibble vs control palatant (in words) [1]: effective at significantly reducing Salmonella
palatability (in words) (cats; [9]): adequate palatability
IR-A (cats; [10]): 0.46% (N.S.)

O=C(O)c1cc(O)c(O)c(O)c1 [GA, gallic acid]
palatability (in words) (cats; [9]): very good palatability
IR-A (cats; [11]): 0.55 (N.S.)
IR-A (cats; [10]): 0.70 (p ≤ 0.001)

O=C(O)CC(O)C(=O)O (stereo not drawn) [Malic acid, reference compound]
effect on palatability / taste (in words) (cats): adverse effects on palatability

C/C=C/C=C/C(=O)O [Sorbic Acid, sorbic acid]
Salmonella ([1]; Table 12, 0.50% total acid on cat kibble, day 0): 3.50 ± 0.06^Ba log CFU/g
Salmonella ([1]; Table 12, 0.50% total acid on cat kibble, day 1): 2.10 ± 0.08^Bb log CFU/g
Salmonella ([1]; Table 12, 0.50% total acid on cat kibble, day 5): 0.77 ± 0.39^Bc log CFU/g
Salmonella ([1]; Table 12, 0.50% total acid on cat kibble, day 7): 0.49 ± 0.49^Bc log CFU/g
Salmonella ([1]; Table 12, 0.50% total acid on cat kibble, day 14): 0.67 ± 0.33^Bc log CFU/g
Salmonella ([1]; Table 12, 0.50% total acid on cat kibble, day 21): 0.00 ± 0.00^Bc log CFU/g
Salmonella counts on challenged cat kibble vs control palatant (in words) ([1]; listed as sorbic): effective at significantly reducing Salmonella
Salmonella counts on challenged cat kibble vs control palatant (in words) ([1]; listed as sorbic acid): significantly lower
IR-A (cats; Confirmation trials, Prototype 89-87, 0.5% total acid on kibble): 0.59 p ≤ 0.001)
palatability (in words) (cats; Example 4 cat trials, formula 89-87 or 89-145 vs incumbent dry palatant, listed as Sorbic acid): scored significantly higher than the incumbent flavor
palatability (in words) (cats; Example 4 cat trials, formula 89-87 or 89-145 vs incumbent dry palatant, listed as sorbic acid): remained high
IR-A (cats; [12]): 0.74 (p ≤ 0.001)
IR-A (cats; [13]): 0.70 (p ≤ 0.001)
Salmonella counts on challenged dog kibble vs control palatant (in words) [2]: effective at significantly reducing Salmonella

O=C(O)CCC(=O)O [Suc, succinic acid]
Salmonella counts on challenged cat kibble vs control palatant (in words) [1]: effective at significantly reducing Salmonella
palatability (in words) (cats; [9]): palatable alternate to fumaric acid
IR-A (cats; [12]): 0.56 (N.S.)
IR-A (cats; [13]): 0.54 (N.S.)
Salmonella counts on challenged dog kibble vs control palatant (in words) [2]: effective at significantly reducing Salmonella

O=C(OC[C@H]1O[C@@H](OC(=O)c2cc(O)c(O)c(OC(=O)c3cc(O)c(O)c(O)c3)c2)[C@H](OC(=O)c2cc(O)c(O)c(OC(=O)c3cc(O)c(O)c(O)c3)c2)[C@@H](OC(=O)c2cc(O)c(O)c(OC(=O)c3cc(O)c(O)c(O)c3)c2)[C@@H]1OC(=O)c1cc(O)c(O)c(OC(=O)c2cc(O)c(O)c(O)c2)c1)c1cc(O)c(O)c(OC(=O)c2cc(O)c(O)c(O)c2)c1 [TA, tannic acid]
Salmonella [1, 3]: 3.19 ± 0.17^Aa log CFU/g
Salmonella [1, 4]: 2.51 ± 0.26^Ab log CFU/g
Salmonella [1, 5]: 2.05 ± 0.18^Ab log CFU/g
Salmonella [1, 6]: 1.50 ± 0.10^Ac log CFU/g
Salmonella [1, 7]: 1.46 ± 0.16^Ac log CFU/g
Salmonella [1, 8]: 0.00 ± 0.00^Bd log CFU/g
Salmonella counts on challenged cat kibble vs control palatant (in words) [1]: effective at significantly reducing Salmonella
palatability (in words) (cats; [9]): acceptable palatability
IR-A (cats; [11]): 0.55 (N.S)

O=C(O)/C=C\C(=O)O [maleic acid, reference compound]
effect on palatability / taste (in words) (cats): repulsive, astringent taste

O=C(O)C(O)C(O)C(=O)O (stereo not drawn) [tartaric acid, reference compound]
palatability (in words) (cats; Example 1 cat trials, dry palatant 1.5% on kibble, vs benchmark): significant declines in palatability
IR (cats; Trial 412, 33% tartaric acid in formula, palatant 1.5% on kibble, vs name brand cat food): 0.24
effect on palatability / taste (in words) (cats): adverse effects on palatability
